Broadly, the Kb is the equilibrium dissociation constant of an antagonist, usually derived from a functional assay. What is called Ki is a dissociation constant, usually derived from enzyme kinetics or from competition with a known ligand. The inhibition is how much of the control response was suppressed. A word on the ED50: it is the midpoint of the dose-response relation.

The values below come from ChEMBL document CHEMBL4376854, “Investigation of the Adrenergic and Opioid Binding Affinities, Metabolic Stability, Plasma Protein Binding Properties, and Functional Effects of Selected Indole-Based Kratom Alkaloids” (J Med Chem, 2020).

Activity calls are given as the source filed them. No cut-off for these calls is given here.

The conditions of data set [1]: human, microsomes, 1 h.
A further data set is described as follows: in vitro. Particulars: human, plasma.
Data set [2] deals with Rattus norvegicus. The data set can be described thus: Antinociceptive activity in Sprague-Dawley rat dosed intravenously using cumulative dosing every 5 mins until rat maxed-out on hot plate co-treated with 0.1 mg/kg naltrexone by hot plate test. It is filed as functional, organism-based. In general terms: In hot-plate and tail-flick tests a longer latency is read as antinociception.

In data set [3] the target is T1, Delta-type opioid receptor (Homo sapiens, UniProt P41143). Briefly: Antagonist activity at human recombinant delta opioid receptor expressed in rat Chem-1 (RBL) cells assessed as inhibition of DPDPE-induced intracellular calcium levels incubated at room temperature by fluorimetry. In kind it is functional, cell-based. (In general: Calcium flux is commonly read through the fluorescence of an indicator in the cells.)

Data set [4] in a line: Protein binding in human plasma at 1 uM by equilibrium dialysis. It is filed as ADME, cell-free. Particulars: read-out: PPB (converted). On the technique in general: In equilibrium dialysis only unbound substance equilibrates across the membrane.
In data set [5] the test system is Rattus norvegicus. Briefly: Antinociceptive activity in Sprague-Dawley rat dosed intravenously using cumulative dosing every 5 mins until rat maxed-out on hot plate by hot plate test relative to control. It is filed as functional.
A short description of data set [6]: Toxicity in Sprague-Dawley rat assessed as induction of hypothermia at 0.0032 to 10 mg/kg, iv. In kind it is organism-based. The note with it: in vivo.
The target of data set [7] is T1, Delta-type opioid receptor. The data set can be described thus: biochemical.
Data set [8] deals with T1, Delta-type opioid receptor. The data set can be described thus: Displacement of [3H]DADLE from human recombinant delta opioid receptor expressed in rat Chem-1 (RBL) cell membranes at 10000 nM incubated for 60 mins relative to control.
For data set [9], the system named is Rattus norvegicus. Briefly: Antinociceptive activity in Sprague-Dawley rat dosed intravenously using cumulative dosing every 5 mins until rat maxed-out on hot plate by hot plate test. The note with it: iv. In kind it is functional.
For data set [10] the following is noted: human, microsomes, 1 µM.
The target in data set [11] is T1, Delta-type opioid receptor. The data set can be described thus: Displacement of [3H]DADLE from human recombinant delta opioid receptor expressed in rat Chem-1 (RBL) cell membranes at 100 nM incubated for 60 mins relative to control.
Data set [12] concerns the target Kappa-type opioid receptor (Homo sapiens, UniProt P41145). The data set can be described thus: Displacement of [3H]U69,593 from human recombinant kappa opioid receptor expressed in rat RBL cell membranes incubated for 60 mins.
In another data set the target is Mu-type opioid receptor (Homo sapiens, UniProt P35372). Briefly: biochemical.
Chain of Mu-type opioid receptor (P35372 whole entry): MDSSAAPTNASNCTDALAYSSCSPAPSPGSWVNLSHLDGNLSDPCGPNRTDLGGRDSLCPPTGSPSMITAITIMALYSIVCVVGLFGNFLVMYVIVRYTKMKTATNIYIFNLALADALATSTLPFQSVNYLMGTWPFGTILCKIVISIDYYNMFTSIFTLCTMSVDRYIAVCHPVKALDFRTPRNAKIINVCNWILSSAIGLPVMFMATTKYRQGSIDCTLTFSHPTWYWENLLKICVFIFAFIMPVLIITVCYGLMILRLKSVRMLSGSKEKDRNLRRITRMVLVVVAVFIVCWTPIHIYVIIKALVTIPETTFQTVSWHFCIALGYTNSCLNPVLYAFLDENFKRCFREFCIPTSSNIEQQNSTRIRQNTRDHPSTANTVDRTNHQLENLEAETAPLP

T1 sequence (P41143 whole entry): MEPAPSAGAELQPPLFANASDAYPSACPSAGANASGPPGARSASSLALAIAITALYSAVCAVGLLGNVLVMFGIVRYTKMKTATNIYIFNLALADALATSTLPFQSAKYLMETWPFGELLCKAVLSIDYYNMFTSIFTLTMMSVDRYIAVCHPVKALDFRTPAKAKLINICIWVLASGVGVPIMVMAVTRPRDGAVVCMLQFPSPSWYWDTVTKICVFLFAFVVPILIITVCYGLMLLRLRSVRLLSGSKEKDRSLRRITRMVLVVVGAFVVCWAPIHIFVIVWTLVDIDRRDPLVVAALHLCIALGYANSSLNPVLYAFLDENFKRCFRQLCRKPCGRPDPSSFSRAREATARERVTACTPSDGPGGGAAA
Chain of Kappa-type opioid receptor (P41145 whole entry): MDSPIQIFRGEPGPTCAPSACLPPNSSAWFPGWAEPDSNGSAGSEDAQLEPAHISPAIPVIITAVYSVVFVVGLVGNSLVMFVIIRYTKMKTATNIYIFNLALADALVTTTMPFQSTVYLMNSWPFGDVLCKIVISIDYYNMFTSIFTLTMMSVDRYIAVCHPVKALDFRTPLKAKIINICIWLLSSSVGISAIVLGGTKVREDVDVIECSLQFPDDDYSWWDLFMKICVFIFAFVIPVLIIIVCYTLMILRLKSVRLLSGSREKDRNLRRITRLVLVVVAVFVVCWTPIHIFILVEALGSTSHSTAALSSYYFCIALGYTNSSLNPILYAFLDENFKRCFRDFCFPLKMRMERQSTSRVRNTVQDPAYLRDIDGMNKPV

Consider `CC[C@@H]1CN2CC[C@@]3(O)C(=Nc4cccc(OC)c43)[C@@H]2C[C@@H]1/C(=C\OC)C(=O)OC`, for which the Kel in [1] was 0.0041 min⁻¹. Further, the fraction unbound at 1 µM (in “in vitro”; in data set [4]) was 0.1 each time. The outcome in the data set with Rattus norvegicus [2] was inactive. In data set [3], the Kb amounted to 550 nM. For the same compound, the MPE in the data set with Rattus norvegicus [5] was determined as 100%. Further, the Activity entry in [6] is listed as “Non-Toxic”. Further, the Ki in data set [7] was 236 nM; in data set [12], 74.1 nM. The inhibition in data set [8] turned out to be 93.7%; in data set [11], 19.6%. The same compound registered an ED50 in the data set with Rattus norvegicus [9] of 1.91 mg/kg. This compound also yielded a Fu in [10] of 0.852.

`CC[C@@H]1CN2CCc3c([nH]c4cccc(O)c34)[C@@H]2C[C@@H]1/C(=C\OC)C(=O)OC` registered a Ki on Mu-type opioid receptor of 105 nM.

As for `CN1CC[C@]23c4c5ccc(O)c4O[C@H]2[C@@H](O)C=C[C@H]3[C@H]1C5` [MORPHINE], in the data set with Rattus norvegicus [2], the result was inactive. This compound also had an ED50 in the data set with Rattus norvegicus [9] of 5.1 mg/kg.
